Measurements published in PubChem BioAssay (NCI).
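Exposure lasted 48 hours, with cells grown in 96-well plates and compounds tested at five concentrations. GI50: concentration for 50% inhibition of growth. TGI marks complete inhibition of growth.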

Experiments:
Experiment in all cases: inhibition of tumour cell growth, NCI panel, 48 h
[1] = system: 786-0 renal
[2] = system: A498 renal
[3] = system: A549 NSCLC
[4] = system: ACHN renal
[5] = system: BT-549 breast
[6] = system: CAKI-1 renal
[7] = system: CCRF-CEM leukemia
[8] = system: COLO 205 colon
[9] = system: DU-145 prostate
[10] = system: EKVX NSCLC
[11] = system: HCC-2998 colon
[12] = system: HCT-116 colon
[13] = system: HCT-15 colon
[14] = system: HL-60(TB) leukemia
[15] = system: HOP-62 NSCLC
[16] = system: HOP-92 NSCLC
[17] = system: HS 578T breast
[18] = system: HT29 colon
[19] = system: IGROV1 ovarian
[20] = system: KM12 colon
[21] = system: LOX IMVI melanoma
[22] = system: M14 melanoma
[23] = system: MALME-3M melanoma
[24] = system: MDA-MB-231 breast
[25] = system: MDA-MB-435
[26] = system: MOLT-4 leukemia
[27] = system: NCI-H226 lung
[28] = system: NCI-H23 lung
[29] = system: NCI-H460 lung
[30] = system: NCI-H522 lung
[31] = system: NCI/ADR-RES ovarian
[32] = system: OVCAR-3 ovarian
[33] = system: OVCAR-4 ovarian
[34] = system: OVCAR-5 ovarian
[35] = system: OVCAR-8 ovarian
[36] = system: RPMI-8226 leukemia
[37] = system: RXF 393 renal
[38] = system: SF-268 CNS
[39] = system: SF-295 CNS
[40] = system: SF-539 CNS
[41] = system: SK-MEL-2 melanoma
[42] = system: SK-MEL-5 melanoma
[43] = system: SK-OV-3 ovarian
[44] = system: SN12C renal
[45] = system: SNB-19 CNS
[46] = system: SR leukemia
[47] = system: SW-620 colon
[48] = system: T-47D breast
[49] = system: TK-10 renal
[50] = system: U251 CNS
[51] = system: UACC-257 melanoma
[52] = system: UO-31 renal

COc1cc2c3c(n(CCCN(C)C)c(=O)c2cc1OC)-c1cc2c(cc1C3=O)OCO2
GI50 [1]: 0.0799 µM | TGI [1]: 0.583 µM | GI50 [2]: 9.92 µM | TGI [2]: 33.4 µM | GI50 [3]: 0.515 µM | TGI [3]: 2.29 µM | GI50 [4]: 0.146 µM | TGI [4]: 1.14 µM | GI50 [5]: 1.4 µM | TGI [5]: 3.44 µM | GI50 [6]: 0.368 µM | TGI [6]: 1.77 µM | GI50 [7]: < 0.01 µM | TGI [7]: 0.403 µM | GI50 [8]: 0.944 µM | TGI [8]: 11.7 µM | GI50 [9]: 0.144 µM | TGI [9]: 1.69 µM | GI50 [10]: 1.46 µM | TGI [10]: 3.39 µM | GI50 [11]: < 0.0357 µM | GI50 [12]: 0.22 µM | TGI [12]: 1.87 µM | GI50 [13]: 0.331 µM | GI50 [14]: 1.01 µM | TGI [14]: 3.33 µM | GI50 [15]: 0.0182 µM | TGI [15]: 0.421 µM | GI50 [16]: 1.84 µM | TGI [16]: 10.6 µM | GI50 [17]: 2.3 µM | TGI [17]: 5.93 µM | GI50 [18]: 0.0702 µM | TGI [18]: 1.78 µM | GI50 [19]: 1.04 µM | TGI [19]: 2.38 µM | GI50 [20]: 0.678 µM | TGI [20]: 2.68 µM | GI50 [21]: 0.0662 µM | TGI [21]: 1.58 µM | GI50 [22]: 0.422 µM | TGI [22]: 1.93 µM | GI50 [23]: 0.163 µM | TGI [23]: 1.98 µM | GI50 [24]: 0.972 µM | TGI [24]: 2.76 µM | GI50 [25]: 0.65 µM | TGI [25]: 2.13 µM | GI50 [26]: < 0.01 µM | TGI [26]: 3.4 µM | GI50 [27]: 1.4 µM | TGI [27]: 5.88 µM | GI50 [28]: 0.165 µM | TGI [28]: 1.59 µM | GI50 [29]: 0.281 µM | TGI [29]: 3.37 µM | GI50 [30]: 0.805 µM | TGI [30]: 4.74 µM | GI50 [31]: 0.0678 µM | TGI [31]: 0.564 µM | GI50 [32]: 1.33 µM | TGI [32]: 2.91 µM | GI50 [33]: 0.467 µM | TGI [33]: 2.88 µM | GI50 [34]: 1.2 µM | TGI [34]: 2.44 µM | GI50 [35]: 0.432 µM | TGI [35]: 3.04 µM | GI50 [36]: 0.182 µM | TGI [36]: 1.19 µM | GI50 [37]: 2.48 µM | TGI [37]: > 100 µM | GI50 [38]: 1.11 µM | TGI [38]: 5.59 µM | GI50 [39]: 0.0387 µM | TGI [39]: 1.65 µM | GI50 [40]: 0.162 µM | TGI [40]: 1.31 µM | GI50 [41]: 3.45 µM | TGI [41]: 13.1 µM | GI50 [42]: 0.436 µM | TGI [42]: 2.09 µM | GI50 [43]: 1.29 µM | TGI [43]: 4.33 µM | GI50 [44]: 0.935 µM | TGI [44]: 2.75 µM | GI50 [45]: 0.554 µM | TGI [45]: 6.12 µM | GI50 [46]: < 0.01 µM | TGI [46]: 0.112 µM | TGI [47]: 1.9 µM | GI50 [48]: 0.496 µM | TGI [48]: 3.94 µM | GI50 [49]: 1.48 µM | TGI [49]: 3.26 µM | GI50 [50]: 0.127 µM | TGI [50]: 4 µM | GI50 [51]: 1.18 µM | TGI [51]: 2.84 µM | GI50 [52]: 0.926 µM | TGI [52]: 2.26 µM
